Entries after “also recorded” stand apart in the source; their conditions may differ.
Columns and labels:
paternal Ube3a-YFP [1] = assay: High-content imaging of paternal UBE3A-YFP in cultured cortical neurons (GFP antibody-enhanced fluorescence); assay type: cell-based, mouse; details: for unsilencing of paternal Ube3a-YFP by imaging, in words: library screen at 1 μM or dose response, 72 hr; for percent of neurons expressing UBE3A-YFP above threshold: cultured mouse cortical neurons, 72 hr treatment, n=4, DMSO control 0.03±0.004%
Procedure: (§1) Cell culture and drug treatment: Primary cortical neurons were isolated and cultured by following established protocol. Briefly, cortical neurons were isolated from embryos (E13.5-15.5) carrying paternal Ube3a-YFP (Ube3a^m+/pYFP) or maternal deletion of Ube3a (Ube3a^m−/p+). Isolated cortical neurons were plated onto 384-well plates coated with poly-D-lysine (2.0×10^4 cell/well) for high-content imaging analysis or 6-well plates coated with poly-D-lysine (1.0×10^6 cells/well) for molecular and biochemical assays (western blot analysis, quantitative RT-PCR, and shRNA knockdown). Cultured neurons were maintained for 7 days, replacing medium every 3-4 days. On day 7 (DIV 7), the indicated compounds were added at 0.3-1 μM to neurons for 72 hr to unsilence paternal Ube3a or Ube3a-YFP.
Fluorescence immunocytochemistry and high content imaging analysis: Fluorescent immunocytochemistry and high content imaging analysis were performed by following previously described protocols with slight modifications. After 72 hr drug treatment, the neurons were fixed with 4% paraformaldehyde in 1×PBS at room temperature for 10 min. After brief washing with 1×PBS three times, neurons were permeabilized with 1% Triton-X 100 in 1×PBS at room temperature for 15 min, followed by blocking with 5% normal goat serum in 0.1% Triton-X 100 in 1×PBS at room temperature. 60 min after blocking, neurons were incubated with primary antibody, rabbit anti-GFP (1:1000, Novus Biologicals), at 4° C. overnight. Neurons were then briefly washed with 1×PBS followed by incubation with secondary antibody, goat anti-rabbit Alexa Fluor 488 (1:500, Thermo Fisher/Invitrogen) and Hoechst 33342 (Thermo Fisher), at room temperature for 60 min. Following secondary antibody incubation, neurons were washed with 1×PBS and fluorescent images were acquired using a BD Pathway 855 bioimager. All acquired images were analyzed by CellProfiler.
Fluorescence immunocytochemistry and high content imaging analysis: After 72-hour drug treatment, the neurons were fixed with 4% paraformaldehyde in phosphate-buffered saline (PBS) at room temperature for 10 min. After brief washing with PBS three times, neurons were permeabilized with 1% Triton-X 100 in PBS at room temperature for 10 min, followed by blocking with 5% normal goat serum in 0.1% Triton-X 100 in 1×PBS at room temperature. 30 min after blocking, neurons were incubated with primary antibodies rabbit anti-GFP (1:1000, NB 600308, Novus Biologicals) and mouse anti-NeuN (1:500, MAB 377, Millipore) at 4° C. overnight. Neurons were then briefly washed with 1×PBS followed by incubation with secondary antibodies goat anti-rabbit Alexa Fluor 488 (1:500, A11008, Thermo Fisher/Invitrogen) and anti-mouse Alexa Fluor 568 (1:500, A21124, ThermoFisher/Invitrogen) together with DAPI (4′,6-diamidino-2-phenylindole) at room temperature for 60 min. Following secondary antibody incubation, neurons were washed with 1×PBS and fluorescent images were acquired using Nikon Ti2 eclipse fluorescent microscope (Nikon Instruments Inc., Melville, NY, USA). Antibody-enhanced UBE3A-YFP fluorescence intensities were determined from DAPI and NeuN double-positive individual neurons in drug-treated wells and normalized to neurons in untreated wells. All acquired images were analyzed by Nikon NIS-Elements software (Nikon Instruments Inc., Melville, NY, USA). Sigmoidal curve fitting for the dose response analysis was performed using GraphPad Prism software version 8.0 (GraphPad Software, La Jolla, CA, USA). The calculated EC50 values (potencies) and Y value top plateau (estimated efficacies) enables comparative analyses of the relative potency and efficacy of the identified compounds.

DOT1L = assay: Western blot of H3K79 methylation (anti-H3K79me2, anti-H3K79me3) in cortical neurons; assay type: cell-based, mouse; details: PHA533533 1.0 μM, Compound X 0.5 μM, EPZ5676 3 μM
Source text: shRNA knockdown and western blot analysis: Lentiviral shRNAs of Top1 (TRCN0000011884), CDK2 (TRCN0000023146), and CDK5 (TRCN0000009520) were generated using previously described techniques. Cultured cortical neurons were infected at DIV 3 and virus was removed the next day (DIV 4). Neurons were further cultured and treated at DIV 10 with vehicle (0.1% DMSO) or the indicated compounds. To perform western blot analysis, the cultured neurons from 6-well plates were harvested and total protein was extracted with protein extraction buffer 72 hr after drug treatment, Bradford assays were performed to measure protein concentration, and 30 μg of total protein was loaded for Bis-polyacrylamide gel electrophoresis (Bio-Rad). Electrophoresed proteins were transferred to nitrocellulose membrane (0.45 μm, Bio-Rad). Membranes were blocked with 5% non-fat milk in 1×TBS-T at room temperature for 30 min followed by overnight 4° C. incubation with primary antibodies [rabbit anti-GFP (1:1000, Novus Biologicals), rabbit anti-Ube3a (1:1000, Bethyl Lab), rabbit anti-H3K79Me2 (1:1000, Abcam), rabbit anti-H3K79Me3 (1:1000, Abcam), and mouse anti-β-actin (1:5000, Sigma)]. […] Following secondary antibody incubation, the membranes were rinsed (4-5 times) with 1×TBS-T at room temperature for 1 hr and ECL (Bio-Rad) was used to visualize detected proteins using an Amersham Imager 600 (AI600, GE Life Sciences).

paternal Ube3a-YFP [2] = assay: Western blot of UBE3A-YFP protein (anti-GFP) in Ube3a^m+/pYFP cortical neurons; assay type: cell-based, mouse; details: Topotecan 0.3 μM, PHA533533 1.0 μM; for UBE3A-YFP protein from the paternal allele (western blot): 72 hr, Compound X 0.5 μM, Compound Y 0.5 μM, EPZ5676 3 μM, EPZ5676 1 μM with P5-A4 1 μM, analogues 1 μM; for unsilencing of paternal Ube3a-YFP with CDK2 knocked down: CDK2 shRNA knockdown; for unsilencing of paternal Ube3a-YFP with CDK5 knocked down: CDK5 shRNA knockdown
Procedure: Cultured cortical neurons were infected at DIV 3 and virus was removed the next day (DIV 4). Neurons were further cultured and treated at DIV 10 with vehicle (0.1% DMSO) or the indicated compounds. To perform western blot analysis, the cultured neurons from 6-well plates were harvested and total protein was extracted with protein extraction buffer 72 hr after drug treatment, Bradford assays were performed to measure protein concentration, and 30 μg of total protein was loaded for Bis-polyacrylamide gel electrophoresis (Bio-Rad). Electrophoresed proteins were transferred to nitrocellulose membrane (0.45 μm, Bio-Rad). Membranes were blocked with 5% non-fat milk in 1×TBS-T at room temperature for 30 min followed by overnight 4° C. incubation with primary antibodies [rabbit anti-GFP (1:1000, Novus Biologicals), rabbit anti-Ube3a (1:1000, Bethyl Lab), rabbit anti-H3K79Me2 (1:1000, Abcam), rabbit anti-H3K79Me3 (1:1000, Abcam), and mouse anti-β-actin (1:5000, Sigma)]. The next day, the immunoblot membranes were rinsed with 1×TBS-T three times and incubated with HPR-conjugated secondary antibodies for 1 hr at room temperature (goat anti-rabbit @ 1:1000 or goat anti-mouse @ 1:1000, Vector Labs). Following secondary antibody incubation, the membranes were rinsed (4-5 times) with 1×TBS-T at room temperature for 1 hr and ECL (Bio-Rad) was used to visualize detected proteins using an Amersham Imager 600 (AI600, GE Life Sciences).

Ube3a-ATS = assay: Quantitative RT-PCR of Ube3a-ATS mRNA in cultured cortical neurons; assay type: cell-based, mouse; details: qPCR normalized to β-actin, after drug treatment
Procedure: as §1
(§2) Quantitative real-time PCR and topoisomerase-based DNA relaxation assay: Quantitative real-time PCR (qPCR) was performed using previously reported protocols. Briefly, total RNA was extracted from cultured cortical neurons carrying Ube3a^m+/pYFP after drug treatment using Direct-zol RNA kit (Zymo Research). cDNA pool was synthesized using 2 μg of total RNA and qScript cDNA Supermix (Quantabio). qPCR was performed using SsoAdvanced Universal SYBR green Supermix (Bio-rad). […] Relative quantity (RQ) was calculated after normalized ΔΔCt was calculated. […]

paternal UBE3A = assay: Western blot of UBE3A protein (anti-Ube3a) in AS model (Ube3a^m-/p+) cortical neurons; assay type: cell-based, mouse; details: 72 hr; Topotecan 0.3 μM, PHA533533 1.0 μM, Compound X 0.5 μM, Compound Y 0.5 μM; versus DMSO-treated WT neurons
Procedure: as §1
shRNA knockdown and western blot analysis: Lentiviral shRNAs of Top1 (TRCN0000011884), CDK2 (TRCN0000023146), and CDK5 (TRCN0000009520) were generated using previously described techniques. Cultured cortical neurons were infected at DIV 3 and virus was removed the next day (DIV 4). […] Following secondary antibody incubation, the membranes were rinsed (4-5 times) with 1×TBS-T at room temperature for 1 hr and ECL (Bio-Rad) was used to visualize detected proteins using an Amersham Imager 600 (AI600, GE Life Sciences).

Snrpn = assay: Quantitative RT-PCR of Snrpn mRNA in cultured cortical neurons; assay type: cell-based, mouse; details: qPCR normalized to β-actin, after drug treatment
Procedure: as §1, §2

Top2a = target: T1, Top2a (Homo sapiens, UniProt P11388); assay: Topoisomerase-based DNA relaxation assay, Top2a (kDNA decatenation); assay type: biochemical; details: catenated versus decatenated kDNA on agarose gel
T1 construct: purchased TopoGEN
Procedure: Quantitative real-time PCR and topoisomerase-based DNA relaxation assay: Quantitative real-time PCR (qPCR) was performed using previously reported protocols. Briefly, total RNA was extracted from cultured cortical neurons carrying Ube3a^m+/pYFP after drug treatment using Direct-zol RNA kit (Zymo Research). cDNA pool was synthesized using 2 μg of total RNA and qScript cDNA Supermix (Quantabio). qPCR was performed using SsoAdvanced Universal SYBR green Supermix (Bio-rad). The primer sets were β-actin (forward, 5′-[…]-3′, SEQ ID NO:1; reverse, 5′-[…]-3, SEQ ID NO:2), YFP (forward, 5′-[…]-3′, SEQ ID NO:3; reverse, 5′-[…]-3′, SEQ ID NO:4), Ube3a-ATS (forward, 5′-[…]-3′, SEQ ID NO:5; reverse, 5′-[…]-3′, SEQ ID NO:6), Snrpn (forward, 5′-[…]-3′, SEQ ID NO:7; reverse, 5′-[…]-3′, SEQ ID NO:8), and Snord116 (forward, 5′-[…]-3′, SEQ ID NO:9; reverse, 5′-[…]-3′, SEQ ID NO:10). qPCR was performed using QuantStudio thermocycler (Thermo Fisher) with the following conditions: 95° C. for 5 min and followed by 40 cycles of 95° C. 10 sec, 60° C. 1 min. Relative quantity (RQ) was calculated after normalized ΔΔCt was calculated. Topoisomerase (Top)-based DNA relaxation assays were performed to test whether the drugs inhibited Top1, Top2a, and Top2b. Top1 and Top2a assay kits were purchased from TopoGEN, and Top2b enzyme was purchased from Inspiralis. All Top-based assays followed manufacturer protocols.

Ube3a-YFP mRNA = assay: Quantitative RT-PCR of Ube3a-YFP mRNA in cultured cortical neurons; assay type: cell-based, mouse; details: qPCR normalized to β-actin, after drug treatment
Procedure: as §1, §2

Snord116 = assay: Quantitative RT-PCR of Snord116 mRNA in cultured cortical neurons; assay type: cell-based, mouse; details: qPCR normalized to β-actin, after drug treatment
Procedure: as §1, §2

[3] = test system: cultured mouse cortical neurons; assay type: cell-based
Procedure: Cytotoxicity test: Cytotoxicity of drugs was tested in cultured mouse cortical neurons in vitro. The manufacturer's protocol was followed to measure luminescence proportional to the number of dead cells using Cyto Tox-Glo assay (Promega). 72 hr after drug treatment, AAF-Glo substrates were directed added to the drug-treated (or 0.1% DMSO vehicle-treated) cortical neurons and incubated them at room temperature for 15 min. Luminescence produced by dead-cell protease activity was then measured.

T1 sequence (P11388 whole entry): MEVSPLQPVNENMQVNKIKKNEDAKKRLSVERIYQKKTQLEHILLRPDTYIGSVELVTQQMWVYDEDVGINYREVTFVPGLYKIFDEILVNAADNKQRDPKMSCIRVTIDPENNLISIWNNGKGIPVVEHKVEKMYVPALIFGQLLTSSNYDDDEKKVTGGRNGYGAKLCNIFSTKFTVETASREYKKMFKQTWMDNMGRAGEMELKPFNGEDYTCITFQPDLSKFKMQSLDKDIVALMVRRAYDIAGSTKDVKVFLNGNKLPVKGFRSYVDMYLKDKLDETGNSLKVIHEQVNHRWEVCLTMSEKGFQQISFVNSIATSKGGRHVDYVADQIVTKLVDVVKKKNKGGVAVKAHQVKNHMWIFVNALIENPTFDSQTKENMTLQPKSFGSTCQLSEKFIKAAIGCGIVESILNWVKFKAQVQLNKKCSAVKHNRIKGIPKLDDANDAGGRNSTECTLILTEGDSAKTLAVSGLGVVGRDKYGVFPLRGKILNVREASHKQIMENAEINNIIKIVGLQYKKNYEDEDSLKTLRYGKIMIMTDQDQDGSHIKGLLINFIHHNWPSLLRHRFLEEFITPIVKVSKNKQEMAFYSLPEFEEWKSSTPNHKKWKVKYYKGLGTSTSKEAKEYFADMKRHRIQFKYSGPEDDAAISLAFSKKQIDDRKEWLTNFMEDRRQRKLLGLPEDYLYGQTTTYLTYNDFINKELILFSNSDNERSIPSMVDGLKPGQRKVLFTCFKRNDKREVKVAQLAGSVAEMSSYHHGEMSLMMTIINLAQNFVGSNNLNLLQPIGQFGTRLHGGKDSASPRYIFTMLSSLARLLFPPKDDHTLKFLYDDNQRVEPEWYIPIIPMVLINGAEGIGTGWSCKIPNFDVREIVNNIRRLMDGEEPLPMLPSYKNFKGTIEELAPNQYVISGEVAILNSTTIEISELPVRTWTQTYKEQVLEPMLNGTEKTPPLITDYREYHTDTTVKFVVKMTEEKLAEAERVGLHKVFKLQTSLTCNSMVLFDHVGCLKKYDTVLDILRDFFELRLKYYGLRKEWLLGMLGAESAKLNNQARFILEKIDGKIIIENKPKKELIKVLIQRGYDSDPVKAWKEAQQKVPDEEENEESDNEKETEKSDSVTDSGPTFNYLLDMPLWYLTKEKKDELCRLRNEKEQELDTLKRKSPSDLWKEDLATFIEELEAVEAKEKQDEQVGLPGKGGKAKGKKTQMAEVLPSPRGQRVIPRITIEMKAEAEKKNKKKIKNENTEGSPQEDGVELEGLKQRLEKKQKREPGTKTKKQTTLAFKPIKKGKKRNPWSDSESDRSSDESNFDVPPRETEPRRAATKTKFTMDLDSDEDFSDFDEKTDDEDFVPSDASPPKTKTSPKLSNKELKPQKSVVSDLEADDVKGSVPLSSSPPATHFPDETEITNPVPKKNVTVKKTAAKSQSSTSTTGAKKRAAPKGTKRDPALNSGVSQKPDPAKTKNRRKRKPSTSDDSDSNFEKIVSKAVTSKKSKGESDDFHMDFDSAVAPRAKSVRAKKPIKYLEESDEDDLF

Row | Molecule | unsilencing of paternal Ube3a-YFP by imaging, in words (paternal Ube3a-YFP [1]) | methylation level on histone H3 lysine 79 (H3K79) (DOT1L) | UBE3A-YFP protein from the paternal allele (western blot) (paternal Ube3a-YFP [2]) | Ube3a-ATS mRNA (Ube3a-ATS) | UBE3A protein from the paternal allele in AS model neurons (western blot) (paternal UBE3A) | percent of neurons expressing UBE3A-YFP above threshold (paternal Ube3a-YFP [1]) | Snrpn mRNA (Snrpn) | unsilencing of paternal Ube3a-YFP with CDK2 knocked down (paternal Ube3a-YFP [2]) | unsilencing of paternal Ube3a-YFP with CDK5 knocked down (paternal Ube3a-YFP [2]) | inhibition of Top2a (Top2a) | mRNA of Ube3a-YFP (Ube3a-YFP mRNA) | Snord116 mRNA (Snord116) | also measured
1 | O=C(Cc1ccc2ccccc2c1)Nc1cc(C2CC2)[nH]n1 [PNU0292137] | could not produce appreciable increases |  |  |  |  |  |  |  |  |  |  |  | 
2 | CC(C)N(C[C@H]1O[C@@H](n2cnc3c(N)ncnc32)[C@H](O)[C@@H]1O)[C@H]1C[C@@H](CCc2nc3cc(C(C)(C)C)ccc3[nH]2)C1 [EPZ5676, reference compound] |  | reduced methylation level on histone H3 lysine 79 (H3K79) | did not appreciably unsilence paternal Ube3a-YFP |  |  |  |  |  |  |  |  |  | 
3 | C[C@H](C(=O)Nc1cc(C2CC2)[nH]n1)c1ccc(N2CCOC2=O)cc1 [Compound P5-A4, (S)—N-(5-cyclopropyl-1H-pyrazol-3-yl)-2-(4-(2-oxooxazolidin-3-yl)phenyl)propenamide] |  |  | did not appreciably unsilence paternal Ube3a-YFP |  |  |  |  |  |  |  |  |  | 
4 | C[C@H](C(=O)Nc1cc(C2CC2)[nH]n1)c1ccc(N2CCCC2=O)cc1 [PHA533533] | effectively unsilenced paternal Ube3a-YFP; also recorded: can unsilence paternal Ube3a-YFP | reduced methylation level on histone H3 lysine 79 (H3K79) | increased UBE3A-YFP protein to levels approaching that of topotecan; also recorded: can produce UBE3A-YFP | significantly decreased; also recorded: downregulates Ube3a-ATS | unsilenced paternal UBE3A at levels that approached that of UBE3A levels in DMSO-treated neurons from WT mice | 63.7±14.3% | decreased | did not unsilence paternal Ube3a-YFP unless neurons were treated | further enhanced | partially inhibited Top2a | upregulated | decreased | potency (EC50) compared to topotecan, in words (paternal Ube3a-YFP [1]; dose response, normalized fluorescent intensity): slightly lower potency than topotecan
5 | ICRF-193 [reference compound] |  |  |  |  |  |  |  |  |  | inhibits the relaxation of catenated kDNA |  |  | 
6 | CC[C@@]1(O)C(=O)OCc2c1cc1n(c2=O)Cc2cc3c(CN(C)C)c(O)ccc3nc2-1 [topotecan, reference compound] | unsilenced paternal UBE3A-YFP |  |  | significantly decreased | unsilenced paternal UBE3A at levels that approached that of UBE3A levels in DMSO-treated neurons from WT mice | 37.3±3.7% | decreased | did not unsilence paternal Ube3a-YFP unless neurons were treated | further enhanced |  | upregulated | decreased | unsilencing of paternal Ube3a-YFP with Top1 knocked down (paternal Ube3a-YFP [2]; Top1 shRNA knockdown): occlude unsilencing; also recorded: occluded the ability; LC50 / cytotoxicity compared to topotecan, in words [3]: comparable LC50

From patent publication US12310947B2, “Methods and compositions for unsilencing imprinted genes” (priority 2019, dated 2025)
